Assay results: paper PMC8822347, “Sustained Control of Pyruvate Carboxylase by the Essential Second Messenger Cyclic di-AMP in Bacillus subtilis” (mBio, 2022)
One block for each molecule: values may come before it.

Columns and labels:
DarB [1] = biological target: DarB (Bacillus subtilis, UniProt O31698); details: 26 µM c-di-AMP, 2.6 µM DarB, 0.26 µM PC, 25 mM KHCO3, 2.5 mM pyruvate, 0.1 mM acetyl-CoA; c-di-AMP acts on DarB, not on PC
DarB [2] = biological target: DarB (Bacillus subtilis, UniProt O31698, L38F); details: 20 °C; 10 µM DarB-L38F in cell, 100 µM c-di-AMP in syringe
[3] = biological target: T1, PC; pyruvate carboxylase (PycA) (Bacillus subtilis, UniProt Q9KWU4); experiment: malate dehydrogenase-coupled NADH oxidation, […] nm; format: biochemical
T1 construct: gene pyc; full length (1148 residues), C-terminal 6xHis (pET28a, pGP3458), from E. coli Rosetta(DE3), biotinylated with BirA; tetrameric

[4] = biological target: T2, PC-6×His (pyruvate carboxylase), biotinylated (B. subtilis, UniProt Q9KWU4 1-1148, biotin (naturally biotinylated or biotinylated in vitro with BirA)); experiment: pull-down; 2 nmol biotinylated PC-6×His or PC^CT+BCCP-6×His on 250 μl StrepTactin matrix with 15 nmol DarB, DarB^L38F or YlxR, overnight at 4°C; washed with dialysis buffer (10 mM Tris pH 7.8, 150 mM KCl, 6 mM β-mercaptoethanol, 5% glycerol); eluted with 7 mM biotin; Western blot, silver stain, mass spectrometry; also with DarB preincubated with c-di-AMP (150 nmol; less DarB bound) and with acetyl-CoA (more DarB …); details: both partners purified
T2 construct: pyruvate carboxylase (PC), encoded by pycA, Bacillus subtilis 168; wild type; domains BC, CT, BCCP; also called His-PC; PycA; source: E. coli Rosetta(DE3) (pGP3458), purified (Ni-NTA, StrepTactin); biotinylated in vitro with purified BirA; not shown: 6×His, C-terminal, kept
T2 sequence (looked up): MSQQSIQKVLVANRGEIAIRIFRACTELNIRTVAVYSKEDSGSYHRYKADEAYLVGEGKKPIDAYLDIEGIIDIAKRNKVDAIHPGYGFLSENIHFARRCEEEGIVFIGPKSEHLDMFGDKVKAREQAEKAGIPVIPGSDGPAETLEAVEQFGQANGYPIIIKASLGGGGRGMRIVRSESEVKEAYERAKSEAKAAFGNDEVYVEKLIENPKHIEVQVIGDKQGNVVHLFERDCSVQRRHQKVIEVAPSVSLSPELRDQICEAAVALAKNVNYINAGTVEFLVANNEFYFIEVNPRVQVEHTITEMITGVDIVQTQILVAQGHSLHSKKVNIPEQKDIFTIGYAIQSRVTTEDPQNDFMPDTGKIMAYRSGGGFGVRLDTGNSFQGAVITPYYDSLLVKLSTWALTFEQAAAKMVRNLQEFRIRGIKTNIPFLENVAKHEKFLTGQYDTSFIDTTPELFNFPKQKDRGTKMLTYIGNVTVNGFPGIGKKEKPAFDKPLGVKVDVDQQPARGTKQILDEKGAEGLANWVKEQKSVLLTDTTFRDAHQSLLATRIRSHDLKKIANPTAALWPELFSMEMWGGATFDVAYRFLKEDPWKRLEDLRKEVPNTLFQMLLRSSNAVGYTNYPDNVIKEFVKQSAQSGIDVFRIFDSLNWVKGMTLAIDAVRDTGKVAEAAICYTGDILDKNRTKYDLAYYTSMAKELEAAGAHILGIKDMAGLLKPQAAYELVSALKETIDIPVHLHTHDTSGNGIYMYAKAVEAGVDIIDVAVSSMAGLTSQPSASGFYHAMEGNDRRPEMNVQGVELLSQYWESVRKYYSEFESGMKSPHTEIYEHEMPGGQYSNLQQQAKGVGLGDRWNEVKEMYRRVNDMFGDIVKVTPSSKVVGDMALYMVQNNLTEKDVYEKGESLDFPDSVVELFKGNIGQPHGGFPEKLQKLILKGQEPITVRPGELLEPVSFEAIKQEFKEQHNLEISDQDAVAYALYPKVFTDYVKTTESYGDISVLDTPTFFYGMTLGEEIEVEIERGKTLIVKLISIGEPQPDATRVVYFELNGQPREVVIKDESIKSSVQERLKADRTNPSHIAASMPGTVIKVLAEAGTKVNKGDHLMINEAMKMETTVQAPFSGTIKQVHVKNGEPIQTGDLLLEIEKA

purified protein = substrate: CC(=O)C(=O)O; experiment: purified protein; format: biochemical, Bacillus subtilis; details: 0.1 mM acetyl-CoA, 2 mM ATP, 25 mM KHCO3, 5 mM MgCl2, 150 mM KCl, pH 7.8, 25 °C, no DarB

Sequence of DarB (Bacillus subtilis, UniProt O31698) (O31698 whole entry): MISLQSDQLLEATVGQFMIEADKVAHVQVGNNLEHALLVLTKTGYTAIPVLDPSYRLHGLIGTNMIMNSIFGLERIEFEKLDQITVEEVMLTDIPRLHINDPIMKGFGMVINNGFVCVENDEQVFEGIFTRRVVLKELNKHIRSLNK

activation by DarB inhibited to (DarB [1]): 16%
Molecule: Nc1ncnc2c1ncn2[C@@H]1O[C@@H]2COP(=O)(O)O[C@H]3[C@@H](O)[C@H](n4cnc5c(N)ncnc54)O[C@@H]3COP(=O)(O)O[C@H]2[C@H]1O [c-di-AMP]
KD (DarB [2]): the mutant protein binds c-di-AMP with a similar affinity as the wild-type protein

Molecule: N[C@@H](CC(=O)O)C(=O)O [aspartate]
malate dehydrogenase-coupled NADH oxidation, 340 nm ([3]; allosteric inhibitor, 16 mM aspartate with 0.1 mM acetyl-CoA, 2.5 mM pyruvate, DarB or BSA present): DarB was no longer able to activate PC in the presence of aspartate

Molecule: CC(=O)SCCNC(=O)CCNC(=O)[C@H](O)C(C)(C)COP(=O)(O)OP(=O)(O)OC[C@H]1O[C@@H](n2cnc3c(N)ncnc32)[C@H](O)[C@@H]1OP(=O)(O)O [acetyl-CoA]
malate dehydrogenase-coupled NADH oxidation, 340 nm ([3]; allosteric activator, 25 mM KHCO3, 2.5 mM pyruvate, pH 7.8, 25 °C, various acetyl-CoA concentrations): the activity of PC was strongly enhanced in the presence of acetyl-CoA

binding result [4]: binds
B1: DarB^L38F, purified, SUMO tag removed (natural protein, B. subtilis)
chain: MISLQSDQLLEATVGQFMIEADKVAHVQVGNNLEHALFVLTKTGYTAIPVLDPSYRLHGLIGTNMIMNSIFGLERIEFEKLDQITVEEVMLTDIPRLHINDPIMKGFGMVINNGFVCVENDEQVFEGIFTRRVVLKELNKHIRSLNK
notes: DarB, Bacillus subtilis 168, with Leu38 changed to Phe; also called DarB mutant L38F; the mutant protein; source: E. coli Rosetta(DE3) (pGP3481), purified (Ni-NTA; SUMO tag removed with SUMO protease); not shown: 6×His, N-terminal, cleaved; SUMO, N-terminal, cleaved

B2: PC; pyruvate carboxylase (PycA) (Bacillus subtilis subsp. subtilis str. 168) (protein)
chain: MSQQSIQKVLVANRGEIAIRIFRACTELNIRTVAVYSKEDSGSYHRYKADEAYLVGEGKKPIDAYLDIEGIIDIAKRNKVDAIHPGYGFLSENIHFARRCEEEGIVFIGPKSEHLDMFGDKVKAREQAEKAGIPVIPGSDGPAETLEAVEQFGQANGYPIIIKASLGGGGRGMRIVRSESEVKEAYERAKSEAKAAFGNDEVYVEKLIENPKHIEVQVIGDKQGNVVHLFERDCSVQRRHQKVIEVAPSVSLSPELRDQICEAAVALAKNVNYINAGTVEFLVANNEFYFIEVNPRVQVEHTITEMITGVDIVQTQILVAQGHSLHSKKVNIPEQKDIFTIGYAIQSRVTTEDPQNDFMPDTGKIMAYRSGGGFGVRLDTGNSFQGAVITPYYDSLLVKLSTWALTFEQAAAKMVRNLQEFRIRGIKTNIPFLENVAKHEKFLTGQYDTSFIDTTPELFNFPKQKDRGTKMLTYIGNVTVNGFPGIGKKEKPAFDKPLGVKVDVDQQPARGTKQILDEKGAEGLANWVKEQKSVLLTDTTFRDAHQSLLATRIRSHDLKKIANPTAALWPELFSMEMWGGATFDVAYRFLKEDPWKRLEDLRKEVPNTLFQMLLRSSNAVGYTNYPDNVIKEFVKQSAQSGIDVFRIFDSLNWVKGMTLAIDAVRDTGKVAEAAICYTGDILDKNRTKYDLAYYTSMAKELEAAGAHILGIKDMAGLLKPQAAYELVSALKETIDIPVHLHTHDTSGNGIYMYAKAVEAGVDIIDVAVSSMAGLTSQPSASGFYHAMEGNDRRPEMNVQGVELLSQYWESVRKYYSEFESGMKSPHTEIYEHEMPGGQYSNLQQQAKGVGLGDRWNEVKEMYRRVNDMFGDIVKVTPSSKVVGDMALYMVQNNLTEKDVYEKGESLDFPDSVVELFKGNIGQPHGGFPEKLQKLILKGQEPITVRPGELLEPVSFEAIKQEFKEQHNLEISDQDAVAYALYPKVFTDYVKTTESYGDISVLDTPTFFYGMTLGEEIEVEIERGKTLIVKLISIGEPQPDATRVVYFELNGQPREVVIKDESIKSSVQERLKADRTNPSHIAASMPGTVIKVLAEAGTKVNKGDHLMINEAMKMETTVQAPFSGTIKQVHVKNGEPIQTGDLLLEIEKA
notes: full length (1148 residues), C-terminal 6xHis (pET28a, pGP3458), from E. coli Rosetta(DE3), biotinylated with BirA; tetrameric
Km (purified protein): 230 µM
